{"source": "paper PMC9969023", "about": "(European Journal of Nuclear Medicine and Molecular Imaging, 2023)", "data": [{"substance": "^18F-FDG", "values": [{"measurement": "SUVmax of paratracheal enlarged lymph nodes", "setting": "patient 2, PET/MR", "result": 21.50}, {"measurement": "SUVmax of thickened esophagus", "setting": "patient 2, PET/MR, 3.7 MBq/kg, 50 to 70 min P.I.", "result": 28.24}, {"measurement": "SUVmax of lung nodule", "setting": "patient 2, PET/MR, nodule in left lung lower lobe", "result": 1.60}, {"measurement": "uptake in peritoneal nodules", "setting": "patient 3, peritoneal metastases, result in words", "result": "mild increased uptake"}]}]}
